Read-outs that look alike come from different tables or passages of the source. Marks after values point to notes of the source that are not given here.
How the values were obtained:
[1] = test system: DSI gill cell epithelium; assay: Concentration equilibrium transport assays (CETA); settings: for CETA, percentage of initial concentration apical versus basal: 1 μg L^−1 both sides, over 48 h
[2] = test system: DSI gill cell epithelium; settings: for Uptake TR (Papp A:B/Papp B:A): rainbow trout (Oncorhynchus mykiss)
[3] = in vitro; settings: rainbow trout (Oncorhynchus mykiss)
[4] = cited from earlier work
[5] = test system: propranolol uptake across DSI gill cell epithelium; assay: Inhibition of the uptake of propranolol by transporter inhibitors; settings: 400 nM inhibitor, 48 h
[6] = Membrane (paracellular) permeability with 14C-mannitol; assay type: in vitro ADME, rainbow trout (Oncorhynchus mykiss); settings: for Papp A→B at 24 h, 0.43 nM: rainbow trout (Oncorhynchus mykiss)
[7] = test system: DSI gill cell epithelium; assay: Bidirectional transport assays (BTA), apparent permeability coefficients and transport ratios; settings: for difference between Papp A:B and Papp B:A: 6 h; for time-dependent BTA, uptake versus efflux (% of donor concentration): over 48 h
[8] = as above; settings: rainbow trout (Oncorhynchus mykiss)
[9] = test system: DSI gill cell epithelium; assay: Concentration-dependent uptake of propranolol, in vitro basal concentrations; assay type: in vitro ADME, rainbow trout (Oncorhynchus mykiss); settings: for In vitro concentration (basal compartment): 6 h apical exposure, asymmetrical
Description: Radioactivity was analyzed as previously described in Section 2.3.
This was calculated using the mammalian fish leverage model, whereby the predicted plasma concentration can be described by multiplying the environmental concentration by the blood to water partitioning coefficient ([Huggett et al., 2004]) using the Fitzsimmons model for the partitioning of compounds between blood and water ([Fitzsimmons et al., 2001]).

[10] = pH-dependent transport of propranolol; assay type: in vitro ADME, rainbow trout (Oncorhynchus mykiss); settings: rainbow trout (Oncorhynchus mykiss); for Papp B→A at 6 h, 1 μg L^−1: 1 μg L^−1, read-out: Papp B:A (efflux permeability)
[11] = test system: DSI gill cell epithelium; assay: pH-dependent transport of propranolol; assay type: in vitro ADME, rainbow trout (Oncorhynchus mykiss); settings: pH from 8 to 9.5; asymmetrical; 6 h
[12] = parameters: method as in AstraZeneca, 2014; settings: experimentally measured values, ref AstraZeneca, 2014, cited from earlier work
[13] = parameters: method as in Owen et al., 2009; settings: ref Owen et al., 2009, cited from earlier work; for In vivo plasma concentration: 40 days exposure
[14] = nominal water concentration 10 μg L^−1
[15] = nominal water concentration 100 μg L^−1
[16] = nominal water concentration 1000 μg L^−1
[17] = nominal water concentration 10,000 μg L^−1

COc1ccc(CC(C)NCC(O)c2ccc(O)c(NC=O)c2)cc1 (centres unmarked) [Formoterol, formoterol]
CETA, percentage of initial concentration apical versus basal ([1]; asymmetrical conditions): no signs of facilitated transport
CETA, percentage of initial concentration apical versus basal ([1]; symmetrical conditions): more in the apical than basal
difference between Papp A:B and Papp B:A [2]: no significant differences
time-dependent BTA, uptake versus efflux (% of donor concentration) [2]: slightly greater uptake than efflux
Uptake TR (Papp A:B/Papp B:A) [2]: 1.08
Uptake TR (Papp A:B/Papp B:A) ([2]; pH 7.7): 0.97
efflux ratio [3]: 0.93
efflux ratio ([3]; pH 7.7): 1.03
pKa (acidic) ([4]; acidic): 7.9
pKa (basic) ([4]; basic): 9.2

CN(C)CCCN1c2ccccc2CCc2ccccc21 [Imipramine, imipramine]
facilitated transport as share of the total transport ([1]; CETA): approximately 10%
CETA, percentage of initial concentration apical versus basal ([1]; asymmetrical conditions): increased apical to basal transport
CETA, percentage of initial concentration apical versus basal ([1]; symmetrical conditions): increased basal to apical facilitated transport
pKa [4]: around 9.5

CN(C)C(=O)CCSC(SCCC(=O)O)c1cccc(/C=C/c2ccc3ccc(Cl)cc3n2)c1 (centres unmarked) [MK571]
decrease in propranolol permeability compared to the control ([5]; apical application): approximately 40%
decrease in propranolol permeability compared to the control ([5]; basal application): approximately 40%

OC[C@@H](O)[C@@H](O)[C@H](O)[C@H](O)CO [Mannitol, mannitol]
Papp at 24 h, 0.43 nM ([6]; pH 7.7, cell free inserts, TER 0 Ω cm^2 (blanked), apical freshwater, read-out: Mannitol flux (permeability)): 3.6 ± 0.2 ×10⁻⁶ cm/s
Papp A→B at 24 h, 0.43 nM ([6]; pH 7.7, DSI epithelia with TER 200–1000 Ω cm^2, apical freshwater, read-out: mannitol permeability): 1.1 ± 1.1 ×10⁻⁶ cm/s
Papp A→B at 24 h, 0.43 nM ([6]; pH 7.7, DSI epithelia with TER >2 kΩ cm^2, apical freshwater, read-out: mannitol permeability (Papp A:B)): 0.1 ± 0.01 ×10⁻⁶ cm/s

COCCc1ccc(OCC(O)CNC(C)C)cc1 (centres unmarked) [Metoprolol, metoprolol]
difference between Papp A:B and Papp B:A ([7]; asymmetrical conditions): no significant differences
time-dependent BTA, uptake versus efflux (% of donor concentration) ([7]; asymmetrical conditions): slightly greater uptake than efflux
CETA, percentage of initial concentration apical versus basal ([1]; asymmetrical conditions): no signs of facilitated transport
CETA, percentage of initial concentration apical versus basal ([1]; symmetrical conditions): no significant differences

CC(C)NCC(O)COc1cccc2ccccc12 (centres unmarked) [Propranolol, propranolol]
Papp A→B at 6 h, 1 μg L^−1 [8]: 1.7 ± 0.2 ×10⁻⁶ cm/s
Papp B→A at 6 h, 1 μg L^−1 [8]: 1.1 ± 0.02 ×10⁻⁶ cm/s
Papp B→A at 6 h, 1 μg L^−1 ([8]; pH 7.7): 0.8 ± 0.1 ×10⁻⁶ cm/s
difference between Papp A:B and Papp B:A ([7]; asymmetrical conditions): significantly higher
time-dependent BTA, uptake versus efflux (% of donor concentration) ([7]; asymmetrical conditions): taken up across the gill cell surface than effluxed
facilitated transport as share of the total transport ([1]; CETA): approximately 10%
CETA, percentage of initial concentration apical versus basal ([1]; asymmetrical conditions): increased apical to basal transport
CETA, percentage of initial concentration apical versus basal ([1]; symmetrical conditions): significantly more than the basal
in vitro basolateral concentration as average share of actual plasma concentration [9]: 16%
in vitro basolateral concentration as average share of predicted plasma concentration [9]: 6%
slope of [rate] versus [concentration] (flux) ([9]; 0.014–10,000 μg L^−1, 6 h, linear regression, n = 54, r^2 = 0.974): 0.052
slope of [in vitro] versus [actual] plasma concentration ([9]; n = 21, r^2 = 0.966): 0.155
slope of [in vitro] versus [predicted] plasma concentration ([9]; n = 21, r^2 = 0.995): 0.063
In vitro concentration (basal compartment) ([9]; nominal water concentration 0.1 μg L^−1): 0.04 (±0.002) ng mL^−1
In vitro concentration (basal compartment) ([9]; nominal water concentration 1.0 μg L^−1): 0.10 (±0.001) ng mL^−1
In vitro concentration (basal compartment) [9, 14]: 0.72 (±0.02) ng mL^−1
In vitro concentration (basal compartment) [9, 15]: 7.5 (±0.3) ng mL^−1
In vitro concentration (basal compartment) [9, 16]: 79.5 (±7.3) ng mL^−1
In vitro concentration (basal compartment) [9, 17]: 812 (±158) ng mL^−1
In vitro concentration (basal compartment) ([9]; nominal water concentration 100,000 μg L^−1): 5545 (±313) ng mL^−1
Papp A→B at 6 h, 1 μg L^−1 ([10]; apical freshwater pH 6, asymmetrical, 1 μg L^−1, read-out: Papp A:B (uptake permeability)): 0.4 ± 0.03 ×10⁻⁶ cm/s
Papp B→A at 6 h, 1 μg L^−1 ([10]; apical freshwater pH 6, asymmetrical): 2.8 ± 0.1 ×10⁻⁶ cm/s
Papp B→A at 6 h, 1 μg L^−1 ([10]; apical freshwater pH 8, asymmetrical): 0.8 ± 0.1 ×10⁻⁶ cm/s
effect of pH increase on Papp [11]: without significant effect
log Kow ([12]; pH 7.4): 1.12 ^*
In vivo plasma concentration ([13]; nominal water concentration 1.0 μg L^−1, pooled plasma sample): 0.94 ^* (n/a) ng mL^−1
In vivo plasma concentration [13, 14]: 3.3 (±0.4) ng mL^−1
In vivo plasma concentration [13, 15]: 16 (±7) ng mL^−1
In vivo plasma concentration [13, 16]: 280 (±116) ng mL^−1
In vivo plasma concentration [13, 17]: 5200 (±1333) ng mL^−1
actual plasma concentrations as share of predicted [13]: 59%

CNC(=C[N+](=O)[O-])NCCSCc1ccc(CN(C)C)o1 [Ranitidine, ranitidine]
efflux ratio at 6 h, 1 μg L^−1 [8]: 0.83
difference between Papp A:B and Papp B:A ([7]; asymmetrical conditions): no significant differences
time-dependent BTA, uptake versus efflux (% of donor concentration) ([7]; asymmetrical conditions): taken up across the gill cell surface than effluxed
time-dependent BTA, uptake versus efflux (% of donor concentration) ([7]; symmetrical conditions): greater efflux transport
facilitated transport as share of the total transport, efflux ([1]; CETA, efflux): around 5%
CETA, percentage of initial concentration apical versus basal ([1]; symmetrical conditions): no significant differences
pKa [4]: 8.08

CC(C)(C)NCC(O)c1cc(O)cc(O)c1 (centres unmarked) [Terbutaline, terbutaline]
efflux ratio at 6 h, 1 μg L^−1 [8]: 1.09
efflux ratio at 6 h, 1 μg L^−1 ([8]; pH 7.7): 1.13
difference between Papp A:B and Papp B:A ([7]; asymmetrical conditions): no significant differences
time-dependent BTA, uptake versus efflux (% of donor concentration) ([7]; asymmetrical conditions): slightly greater uptake than efflux
CETA, percentage of initial concentration apical versus basal ([1]; asymmetrical conditions): no signs of facilitated transport
CETA, percentage of initial concentration apical versus basal ([1]; symmetrical conditions): no significant differences
log Kow ([12]; no pH given): 1.29
